Results: ChEMBL document CHEMBL1139562, “A switch in enantiomer preference between mitochondrial F1F0-ATPase chemotypes” (Bioorg Med Chem Lett, 2005)

Legend:
[1] = molecular target: T1, Mitochondrial complex V; ATP synthase (Bos taurus) (UniProt P05632+P00829+P05631+P05630); experiment: Inhibitory activity against mitochondrial ATP hydrolase from bovine; type: protein-complex assay
[2] = molecular target: T1, Mitochondrial complex V; ATP synthase (Bos taurus); experiment: Inhibitory activity against mitochondrial ATP synthase from bovine; type: protein-complex assay
[3] = molecular target: T1, Mitochondrial complex V; ATP synthase (Bos taurus); experiment: Inhibitory activity against mitochondrial ATP synthase from bovine

Compound	Inhibition [1]	Inhibition [2]	Inhibition [3]
N#Cc1cccc(C(=O)N/C(=N\[C@H](Cn2ccnc2)c2ccc(Cl)cc2Cl)Nc2ccc(Cl)cc2)c1	> 100 µM	18 nM	
S=C(Nc1ccc(Cl)cc1)O[C@H](Cn1ccnc1)c1ccc(Cl)cc1Cl	> 100 µM	3600 nM	
S=C(Nc1ccc(Cl)cc1)O[C@@H](Cn1ccnc1)c1ccc(Cl)cc1Cl	> 100 µM	140 nM	
S=C(Nc1ccc(Cl)cc1Cl)O[C@@H](Cn1ccnc1)c1ccc(Cl)cc1Cl	> 100 µM	19 nM	
N#Cc1cccc(C(=O)N/C(=N\[C@@H](Cn2ccnc2)c2ccc(Cl)cc2Cl)Nc2ccc(Cl)cc2)c1		> 100000 nM	> 100 µM
S=C(Nc1ccc(Cl)cc1Cl)O[C@H](Cn1ccnc1)c1ccc(Cl)cc1Cl	> 100 µM	2200 nM	
